We go through 1 molecule from publication PMC5361737, “Potent and Selective KDM5 Inhibitor Stops Cellular Demethylation of H3K4me3 at Transcription Start Sites and Proliferation of MM1S Myeloma Cells” (Cell Chemical Biology, 2017).

The test system of one data set is KV channel. The data set is described as follows: Cerep Express Panel, antagonist radioligand. It counts as binding.
For a further data set, the target named is 5-HT1A (h) (Homo sapiens, UniProt P08908). The data set is described as follows: Cerep Express Panel, agonist radioligand. Conditions: read-out: % Inhibition of reference (10 µM). The format is binding.
The target of the next data set is D2S (h) (Homo sapiens, UniProt P14416). Nature of the data set: Cerep Express Panel, antagonist radioligand. The following applies: read-out: % Inhibition of reference (10 µM). The format is binding.
Another data set addresses 5-HT7 (h) (Homo sapiens, UniProt P34969). Nature of the data set: Cerep Express Panel, agonist radioligand. It counts as binding. Conditions: read-out: % Inhibition of reference (10 µM).
The target in another data set is GAL2 (h) (Homo sapiens, UniProt O43603). The data set is described as follows: Cerep Express Panel, agonist radioligand. The format is binding. The following applies: read-out: % Inhibition of reference (10 µM).
For another data set, the target named is NTS1 (NT1) (h) (Homo sapiens, UniProt P30989). Nature of the data set: Cerep Express Panel, agonist radioligand. It counts as binding. Conditions: read-out: % Inhibition of reference (10 µM).
Data set [1] deals with MM1S multiple myeloma cells. The data set is described as follows: Fluorescent cell-viability assay (PrestoBlue). The format is cell-based, human. On the procedure:
MM1S myeloma cells were cultured in RMPI with 10% heat-inactivated FCS and 2 mM glutamine under standard conditions. […] Viability was measured using PrestoBlue reagent and normalized to a vehicle control. Data were plotted and IC50 values were calculated in Prism (v5.1).

The test system of a further data set is MM1S cells. The data set is described as follows: Cell-cycle analysis. The format is cell-based, human.
Another data set concerns the target AT1 (h) (Homo sapiens, UniProt P30556). The data set is described as follows: Cerep Express Panel, antagonist radioligand. The format is binding. Conditions: read-out: % Inhibition of reference (10 µM).
The next data set concerns alpha 2 (non-selective). Nature of the data set: Cerep Express Panel, antagonist radioligand. It counts as binding.
The next data set has as its system BZD (central). Nature of the data set: Cerep Express Panel, agonist radioligand. It counts as binding.
In another data set the target is NK2 (h) (Homo sapiens, UniProt P21452). Nature of the data set: Cerep Express Panel, agonist radioligand. The format is binding. Conditions: read-out: % Inhibition of reference (10 µM).
The subject of the next data set is H3K4me3 in MM1S cells. The data set is described as follows: Quantitative ChIP-seq (ChIP-Rx spike-in) of H3K4me3. The format is cell-based, human. Conditions: 50 μM, 7 days, spike-in quantification. On the procedure:
Immediately prior to fixation in 1% formaldehyde, three million sf9 cells were added to each sample. Cells were fixed for 8 min at room temperature, lysed, and sonicated on a Bioruptor Pico for 3 repeats of 10 cycles of 30 s on/30 s off. The sonicated lysates were incubated for 1 hr at 4°C with pre-blocked protein A Sepharose beads, prior to overnight incubation with 1 μg of anti-H3K4me3 antibody (Millipore cat no. 07–473 lot no. 2207281). Pre-blocked Sepharose beads were added for 1 hr, the beads washed, and DNA was eluted followed by Proteinase K digestion. Libraries were constructed using the NebNext Ultra DAN Kit (NEB) and sequenced on an Illumina NextSeq 500 platform. Libraries were also generated for the input of each condition and sequenced in a similar manner.
Sequencing reads were aligned to the concatenated human/sf9 genome generated earlier using Bowtie (version 1.1.2), allowing only reads that matched uniquely to one location. The number of reads mapping to the human and sf9 genomes separately in each condition was calculated. The number of sf9 reads-per-million total aligned reads was calculated for each pull-down condition and corrected according to the percentage of sf9 reads in the corresponding input samples. A scaling factor for normalization was then calculated for each pull-down based on the reciprocal of the corrected sf9 reads per million for each sample. […]

For a further data set, the target named is PHF8 (Homo sapiens, UniProt Q9UPP1). The data set is described as follows: 2-Oxoglutarate oxygenase assay panel, AlphaScreen assay. The following applies: ± SEM. It counts as biochemical. Background: In Alpha technology, singlet oxygen from a donor bead excites a nearby acceptor bead.
Data set [2] has as its system panel of 55 receptors and enzymes. The data set is described as follows: CEREP express panel of 55 common off-targets. The following applies: 10 µM. It counts as binding.
Data set [3] concerns KDM5A and KDM5C (other KDM5 family members). Nature of the data set: IF assay, HeLa cells overexpressing the other KDM5 family members. Conditions: overexpression IF assay, 24 hr, read-out: inhibitory concentration, other KDM5 family members. It counts as cell-based, human. The source says: The human cervical carcinoma cell line HeLa was obtained from the American Type Cultures Collection and maintained in Eagle's minimal essential media (Sigma-Aldrich) supplemented with 10% heat-inactivated fetal bovine serum (Life Technologies). Full-length cDNA for KDM5B (JARID1B, Q9UGL1, cDNA), KDM5C (JARID1C, P41229, IMAGE 5492114), KDM4B (JMJD2B, O94953, gift from ICR), KDM4C (JMJD2C, Q9H3R0, 8143862), KDM3A (JMJD1A, Q9Y4C1, 4823253), KDM2A (FBXL11, Q9Y2K7, 5534384), and KDM6B (JMJD3, O15054, cDNA) were amplified by PCR from either an MGC clone or a commercial cDNA source, or received as a gift from collaborators and cloned into pDONR-221 vector using Gateway BP reaction producing Gateway entry clones.
[…]. Mutations were introduced into full-length KDM Gateway entry clones using 15 cycles of the QuikChange II PCR protocol (Agilent Technologies). […]
In brief, cells were transiently transfected with either the FLAG-tagged WT or mutant demethylase described above, using Lipofectamine 2000 (Life Technologies). […] After the DAPI-stained nuclei were automatically identified, a minimum threshold for anti-FLAG intensity was set so that only cells highly expressing the demethylase were analyzed. […]

In the next data set the target is A3 (h) (Homo sapiens, UniProt P0DMS8). The data set is described as follows: Cerep Express Panel, agonist radioligand. It counts as binding. Conditions: read-out: % Inhibition of reference (10 µM).

Entries after “also recorded” stand apart in the source; their conditions may differ.

A3 (h), sequence (P0DMS8 whole entry): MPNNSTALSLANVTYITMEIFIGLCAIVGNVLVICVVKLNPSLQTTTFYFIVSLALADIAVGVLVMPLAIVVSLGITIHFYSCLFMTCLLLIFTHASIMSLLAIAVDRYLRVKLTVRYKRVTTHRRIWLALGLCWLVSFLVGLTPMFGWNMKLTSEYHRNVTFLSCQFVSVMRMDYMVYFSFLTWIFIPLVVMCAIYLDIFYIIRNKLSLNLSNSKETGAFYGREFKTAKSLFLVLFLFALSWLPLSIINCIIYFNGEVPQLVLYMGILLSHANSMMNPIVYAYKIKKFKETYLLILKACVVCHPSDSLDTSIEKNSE
5-HT7 (h), sequence (P34969 whole entry): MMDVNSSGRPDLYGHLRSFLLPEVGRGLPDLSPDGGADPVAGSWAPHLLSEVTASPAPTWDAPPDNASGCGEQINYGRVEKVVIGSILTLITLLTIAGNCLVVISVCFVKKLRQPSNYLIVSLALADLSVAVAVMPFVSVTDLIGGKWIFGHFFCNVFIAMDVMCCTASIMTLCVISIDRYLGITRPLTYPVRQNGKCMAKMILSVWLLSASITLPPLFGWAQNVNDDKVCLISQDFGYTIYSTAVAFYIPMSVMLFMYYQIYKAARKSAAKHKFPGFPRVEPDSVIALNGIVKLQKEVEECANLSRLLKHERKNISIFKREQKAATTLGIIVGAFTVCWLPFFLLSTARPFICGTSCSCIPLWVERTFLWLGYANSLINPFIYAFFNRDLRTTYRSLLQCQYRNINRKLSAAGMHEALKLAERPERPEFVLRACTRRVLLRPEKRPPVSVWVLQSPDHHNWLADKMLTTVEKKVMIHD
5-HT1A (h), sequence (P08908 whole entry): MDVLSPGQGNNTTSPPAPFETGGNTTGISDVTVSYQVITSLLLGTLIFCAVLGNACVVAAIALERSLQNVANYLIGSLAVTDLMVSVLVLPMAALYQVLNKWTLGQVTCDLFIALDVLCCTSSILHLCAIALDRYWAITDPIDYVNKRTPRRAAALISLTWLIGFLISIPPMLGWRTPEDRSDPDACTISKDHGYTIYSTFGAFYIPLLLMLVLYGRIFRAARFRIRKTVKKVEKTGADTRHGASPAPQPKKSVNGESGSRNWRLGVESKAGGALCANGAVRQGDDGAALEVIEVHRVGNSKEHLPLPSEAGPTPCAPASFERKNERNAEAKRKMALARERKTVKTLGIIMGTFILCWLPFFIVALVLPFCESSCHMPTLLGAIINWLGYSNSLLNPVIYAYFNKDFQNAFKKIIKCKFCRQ
PHF8, sequence (Q9UPP1 whole entry, species assumed): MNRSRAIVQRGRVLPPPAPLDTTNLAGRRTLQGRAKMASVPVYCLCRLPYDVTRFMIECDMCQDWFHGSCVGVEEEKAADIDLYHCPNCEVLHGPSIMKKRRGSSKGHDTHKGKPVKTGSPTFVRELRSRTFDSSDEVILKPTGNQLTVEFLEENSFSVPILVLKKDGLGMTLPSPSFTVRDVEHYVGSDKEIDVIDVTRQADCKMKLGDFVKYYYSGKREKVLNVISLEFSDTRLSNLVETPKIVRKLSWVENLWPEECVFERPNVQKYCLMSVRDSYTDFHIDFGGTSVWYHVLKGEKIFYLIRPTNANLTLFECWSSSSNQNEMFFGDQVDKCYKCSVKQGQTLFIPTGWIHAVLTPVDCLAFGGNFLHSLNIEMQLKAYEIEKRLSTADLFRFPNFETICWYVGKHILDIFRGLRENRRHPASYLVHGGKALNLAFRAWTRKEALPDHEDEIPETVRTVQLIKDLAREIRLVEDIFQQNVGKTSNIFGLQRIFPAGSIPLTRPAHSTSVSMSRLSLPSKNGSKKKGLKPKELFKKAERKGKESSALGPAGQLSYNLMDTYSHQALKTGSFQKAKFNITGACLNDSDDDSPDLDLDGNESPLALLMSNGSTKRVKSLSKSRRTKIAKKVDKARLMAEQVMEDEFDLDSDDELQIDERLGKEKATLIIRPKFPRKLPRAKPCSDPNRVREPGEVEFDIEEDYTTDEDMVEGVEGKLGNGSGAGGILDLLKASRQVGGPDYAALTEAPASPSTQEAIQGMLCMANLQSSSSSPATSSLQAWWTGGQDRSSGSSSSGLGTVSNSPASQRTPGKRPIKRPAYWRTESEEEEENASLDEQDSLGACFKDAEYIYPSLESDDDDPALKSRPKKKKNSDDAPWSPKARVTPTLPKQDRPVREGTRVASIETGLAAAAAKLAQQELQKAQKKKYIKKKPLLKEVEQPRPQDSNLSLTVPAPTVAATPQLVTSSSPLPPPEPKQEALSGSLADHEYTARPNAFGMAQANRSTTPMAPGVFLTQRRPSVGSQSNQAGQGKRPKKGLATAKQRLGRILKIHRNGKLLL
NTS1 (NT1) (h), sequence (P30989 whole entry): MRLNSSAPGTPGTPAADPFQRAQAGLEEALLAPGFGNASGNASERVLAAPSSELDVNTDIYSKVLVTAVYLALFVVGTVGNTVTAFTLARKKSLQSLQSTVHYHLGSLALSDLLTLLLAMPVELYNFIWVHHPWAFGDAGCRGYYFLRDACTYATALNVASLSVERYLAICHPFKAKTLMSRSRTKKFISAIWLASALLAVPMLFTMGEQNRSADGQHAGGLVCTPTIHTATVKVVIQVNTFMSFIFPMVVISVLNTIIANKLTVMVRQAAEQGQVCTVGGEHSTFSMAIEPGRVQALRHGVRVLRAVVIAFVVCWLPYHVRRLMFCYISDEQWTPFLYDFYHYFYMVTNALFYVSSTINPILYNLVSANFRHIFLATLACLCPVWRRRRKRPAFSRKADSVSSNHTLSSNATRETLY
NK2 (h), sequence (P21452 whole entry): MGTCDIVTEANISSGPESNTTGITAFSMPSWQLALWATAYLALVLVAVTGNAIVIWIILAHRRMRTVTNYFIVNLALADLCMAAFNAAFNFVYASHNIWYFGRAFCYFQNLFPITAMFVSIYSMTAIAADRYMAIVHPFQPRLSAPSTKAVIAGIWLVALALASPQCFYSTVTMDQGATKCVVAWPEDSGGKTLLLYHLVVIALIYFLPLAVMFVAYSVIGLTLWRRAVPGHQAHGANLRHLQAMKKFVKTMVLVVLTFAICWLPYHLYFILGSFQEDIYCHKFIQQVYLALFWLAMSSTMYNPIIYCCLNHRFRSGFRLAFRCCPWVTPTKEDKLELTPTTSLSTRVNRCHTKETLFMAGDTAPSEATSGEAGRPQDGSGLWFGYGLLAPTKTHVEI
D2S (h), sequence (P14416 1-414 isoform P14416-2): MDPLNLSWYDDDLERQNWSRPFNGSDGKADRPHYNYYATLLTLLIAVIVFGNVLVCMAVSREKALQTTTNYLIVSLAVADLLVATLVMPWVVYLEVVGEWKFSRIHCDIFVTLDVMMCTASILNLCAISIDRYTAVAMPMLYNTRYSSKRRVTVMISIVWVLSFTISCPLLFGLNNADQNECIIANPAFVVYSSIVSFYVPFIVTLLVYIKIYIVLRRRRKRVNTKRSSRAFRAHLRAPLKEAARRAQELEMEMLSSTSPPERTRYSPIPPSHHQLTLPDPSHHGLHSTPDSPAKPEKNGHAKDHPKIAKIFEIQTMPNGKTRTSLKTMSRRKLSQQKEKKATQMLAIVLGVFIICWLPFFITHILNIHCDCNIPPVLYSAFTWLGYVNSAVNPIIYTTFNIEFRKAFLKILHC
GAL2 (h), sequence (O43603 whole entry): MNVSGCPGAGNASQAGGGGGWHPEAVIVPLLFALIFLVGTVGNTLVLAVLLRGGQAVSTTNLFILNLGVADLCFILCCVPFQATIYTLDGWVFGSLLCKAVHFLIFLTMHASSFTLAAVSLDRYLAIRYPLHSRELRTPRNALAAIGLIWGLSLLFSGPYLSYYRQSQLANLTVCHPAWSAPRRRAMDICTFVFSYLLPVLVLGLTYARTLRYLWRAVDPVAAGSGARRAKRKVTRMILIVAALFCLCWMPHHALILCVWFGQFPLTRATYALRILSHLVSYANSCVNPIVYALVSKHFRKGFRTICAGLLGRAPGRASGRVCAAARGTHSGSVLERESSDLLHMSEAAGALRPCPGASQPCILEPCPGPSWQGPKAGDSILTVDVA
AT1 (h), sequence (P30556 whole entry): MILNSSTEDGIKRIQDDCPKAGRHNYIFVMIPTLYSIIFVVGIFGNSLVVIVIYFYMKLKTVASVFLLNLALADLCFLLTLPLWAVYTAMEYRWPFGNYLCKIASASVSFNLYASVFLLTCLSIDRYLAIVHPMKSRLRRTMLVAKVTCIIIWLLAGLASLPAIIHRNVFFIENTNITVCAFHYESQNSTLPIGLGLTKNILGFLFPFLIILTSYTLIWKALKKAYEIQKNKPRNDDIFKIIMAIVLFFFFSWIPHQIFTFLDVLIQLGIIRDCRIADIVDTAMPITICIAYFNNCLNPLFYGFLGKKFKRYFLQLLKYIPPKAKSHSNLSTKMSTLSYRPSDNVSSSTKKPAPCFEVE

With `CCN(CCN(C)C)C(=O)CNCc1cc(C(N)=O)ccn1` [KDOAM-25], the “% Inhibition of reference (10 µM)” value with KV channel was -4%; in the data set with alpha 2 (non-selective) it was -11%; in the data set on BZD (central) it was -42%. Moreover, the inhibition (usually the change of the read-out against control, counted positive when it falls) at 10 µM was -7% on 5-HT1A (h); 19% on D2S (h); -10% at 5-HT7 (h); -4% at GAL2 (h); -12% on NTS1 (NT1) (h); -7% at AT1 (h). In addition, the inhibition at 10 µM at NK2 (h) is 3%; at A3 (h), -6%. In addition, the IC50 in data set [1] (Homo sapiens, MM1.S, after a delay of 5–7 days) is approximately 30 µM; in [3], more than 100 µM. For the same molecule, the “effect on cell viability, in words” value in data set [1] (MM1S, after 3 days) is “little effect on cell viability”. The cell-cycle effect entry in the data set on MM1S cells is listed as “G1 cell-cycle arrest”. Also, the “H3K4me3 level compared with the vehicle control” value with H3K4me3 in MM1S cells is given as “approximately twice”. The “pIC50 PHF8” value on PHF8 is recorded as 5.0 ± 0.057. The “off-target inhibition in CEREP express panel, in words” value in [2] is on record as “no inhibition; also recorded: no off-target activity; also recorded: devoid of off-target activity”.
